Assays:
pituitary Att20 cells = assay: Labile iron exposure of pituitary Att20 cells: iron accumulation, cell damage, viability; format: cell-based
Source text: (§1) Among the functions affected by metal-evoked ROS are cell permselectivity (calcein leakage), mitochondrial membrane potential (JC1 test), electron transport activity (Alamar Blue) and cell viability (calcein-propidium iodide). It can be observed that administration of deferasirox at therapeutically achievable doses ([…]): […]

subjects with IGM = assay: Multi-center, double-blind, randomized study in subjects with IGM; format: in vivo, human; details: 8 weeks of treatment
Source text: Favorable effects can be verified that confirm that Compound I can restore early phase insulin secretion and reduce post-prandial glucose levels in subjects with IGM, or can prevent or delay the onset of Type 2 diabetes and cardiovascular diseases in subjects with IGM. A multi-center, double-blind, parallel group, randomized study can be conducted in subjects with IGM in order to evaluate the incidence of confirmed hypoglycemia and the effects on prandial glucose associated with the administration of Compound I, or placebo before each main meal during 8 weeks of treatment. […]
Corresponding dosages of Compound I are administered daily depending on the number of main meals (breakfast, lunch, snack, dinner). […] HbA1c is to be measured at baseline and after 8 weeks of treatment (fasting glucose and fructosamine). Samples of blood are to be drawn at 10, 20, […], 60, 120, and 180 minutes after drug administration (time 0) and the glucose and insulin levels to be measured. […]

[1] = tested on: HJV−/− mice with iron overload; assay: Pancreas iron (ICP-OES) in HJV−/− mice with iron overload; format: in vivo
Method: The spontaneous iron loading and the effect of 4-[3,5-bis(2-hydroxyphenyl)-[1,2,4]triazol-1-yl]benzoic acid (Compound I) has been examined upon the removal of iron in HJV−/− mice with iron overload.
Methods: Inductively-Coupled Plasma Optical Emission Spectrometry (ICP-OES, measurement of elemental iron) determinations in spleen and pancreas were performed at week 8 (study start), 14, 20 and 28 in HJV−/− and wild type (wt) mice (n=6−8). Starting at week 20 three groups of HJV−/− animals received daily 0 (vehicle), 30 or 100 mg/kg of 4-[3,5-bis(2-hydroxyphenyl)-[1,2,4]triazol-1-yl]benzoic acid, control wt-mice remained untreated. Iron loading was observed up to 28 weeks, including vehicle group, and the effects of 4-[3,5-bis(2-hydroxyphenyl)-[1,2,4]triazol-1-yl]benzoic acid were assessed by comparing the 28-week groups. MRI R2* measurements were performed using a 4.7 MR imager.

At20 pituitary cells = assay: Cytoprotective effect on acutely iron-overloaded At20 pituitary cells (calcein retention, Alamar-Blue, ACTH levels); format: cell-based; details: cell culture conditions, pharmacological chelator concentrations
Source text: A major cause of biological damage associated with tissue iron accumulation is the cellular acquisition of circulating labile plasma iron (LPI) by endocytic mechanisms and ensuing metal-catalyzed oxidations. Endocrine cells are presumed to have endocytic abilities and/or high susceptibility to the formation of reactive oxygen intermediates (ROIs), particularly those generated in the presence of labile iron. As these properties might be implicated in the early onset of endocrine dysfunctions observed in transfusional hemosiderosis, a major goal of iron chelation therapy is to prevent iron ingress into endocrine cells and ensuing toxicity and/or removal of cell accumulated iron. Such properties of chelators have been afforded in cardiac cells (Glickstein et al, 2006, Blood In press) by treating LPI-carrying plasma with pharmacological attainable concentrations of orally active iron chelators in clinical practice. […] It has been explored here whether addition of 4-[3,5-bis(2-hydroxyphenyl)-[1,2,4]triazol-1-yl]benzoic acid could rescue acutely-iron-overloaded At20 pituitary cells from iron-toxicity, using fluorescence-plate reader and microscopy-imaging for live monitoring of cell functions and assessing toxicity in terms of: 1. cell integrity (calcein cell retention assay) 2. metabolic activities (mitochondrial Alamar-Blue assay) and 3. intracellular (ACTH) hormone levels.

[2] = model systems and humans; Hershko 2001, Nisbet Brown 2003; cited from earlier work
pancreatic Min6 cells = assay: Labile iron exposure of pancreatic Min6 cells: iron accumulation, cell damage, viability; format: cell-based
Source text: as §1

Diet-induced obese mice = assay: Oral glucose tolerance test and plasma insulin in diet-induced obese mice; format: in vivo; details: compared to the control animals
Method: Diet-induced obese mice are used for the study at 21-23 weeks of age. On the first day of the study, animals are fasted at 7:30 a.m. Body weight measurement and basal blood sample collection are conducted at 10:30 a.m. Plasma glucose values are then determined. Animals were assigned into 4 groups (n=10/group) with the plasma glucose values and body weights matched between the 4 groups. At 12 pm, the animals are dosed orally with vehicle (water) or the Compound I at 30 mg/kg or […] respectively. At 1:00 p.m. a blood sample (at 0 min) is taken followed by an oral glucose tolerance test (OGTT) at 1 g/kg (20% glucose in water) at a dose volume of 5 ml/kg. Blood samples are collected at 30, 60 and 120 min following the glucose administration. The animals are refed after the OGTT. […]
Blood samples are taken during the study via tail bleeding. Plasma glucose concentrations are determined using a glucose meter (Ascensia Elite, Bayer Corp., Mishawaka, Ind.). […] Plasma insulin and glucagons levels are determined by Luminex assays using Mouse Endocrine Lincoplex kit (Linco Research, Inc., St. Charles, Mo.). […] Plasma triglyceride, fatty acid and total cholesterol levels are determined using a fluorescent assay based on Amplex Red kit (Molecular Probes, Eugene, Oreg.). […] Effects on cardiovascular diseases can also be assessed by further analysis on treated animals.

[3] = 30-100 μM, incubated prior to or post iron-loading (acutely or chronically)
[4] = 30-100 μM, present in the iron loading medium
[5] = 30-100 μm, incubated prior to or post iron-loading (acutely or chronically)

O=C(O)c1ccc(-n2nc(-c3ccccc3O)nc2-c2ccccc2O)cc1 [Compound I, 4-[3,5-Bis-(2-hydroxyphenyl)-[1,2,4]-triazol-1-yl]benzoic acid]
cell viability (pituitary Att20 cells; [3]): increases cell viability
labile iron raising in cells (pituitary Att20 cells; [4]): largely prevents labile iron from raising in cells
iron-evoked cell damage (pituitary Att20 cells; [5]): reduces iron-evoked cell damage
2 hour prandial glucose levels, HBA1c and fructosamine levels (subjects with IGM): can be reduced
early phase insulin secretion (subjects with IGM): can be restored
pancreas iron ± SEM ([1]; 30 mg/kg daily from week 20, 28-week group, n = 7): 4.72 ± 0.65 mg/g dry weight
pancreas iron ± SEM ([1]; 100 mg/kg daily from week 20, 28-week group, n = 6): 3.54 ± 0.55 mg/g dry weight
pancreas iron levels, effect in words ([1]; 100 mg/kg dose): clear trend to lower levels
pancreatic iron load, effect in words ([1]; within 8 weeks of treatment): trend to improvement of pancreatic iron load
At20 endocrine cell viability and functional properties compromised by iron-catalyzed formation of ROIs (At20 pituitary cells): can preserve both At20 endocrine cell viability and functional properties
selective removal of iron [2]: effective in the selective removal of iron
cell viability (pancreatic Min6 cells; [3]): increases cell viability
labile iron raising in cells (pancreatic Min6 cells; [4]): largely prevents labile iron from raising in cells
iron-evoked cell damage (pancreatic Min6 cells; [5]): reduces iron-evoked cell damage
plasma insulin levels (Diet-induced obese mice): can show a lowering in plasma insulin levels

— patent US20100004303A1, “TREATMENT OF ENDOCRINE DYSFUNCTION USING IRON CHELATORS” (NOVARTIS AG, priority 2006, published 2010)
